Experiment: ability of solvent combination to dissolve hormones
Type: physicochemical
Details: combination of ethoxy diglycol and propylene glycol in any ratio, compared with either solvent alone

For C[C@]12CC[C@H]3[C@@H](CCC4=CC(=O)CC[C@@]43C)[C@@H]1CC[C@@H]2O [testosterone], the ability to dissolve was “better than using any of the solvents alone”.
